Values joined by “and” are separate entries in the source; they are usually repeats but may differ in a detail not shown here. Equal values may be shown once. Read-outs that look alike come from different tables or passages of the source.
Assay: Pharmacokinetics in Sprague Dawley rats (plasma and brain concentrations, PK parameters)
Format: in vivo
Conditions: for Concentration Rat 4 / Concentration Rat 5 / Concentration Rat 6: po 10 mg/kg
Method: Pharmacokinetics for I-127, I-172 and I-210 were determined in Sprague Dawley rats or CD-1 mice by dosing intravenous (IV), subcutaneous (SC) or per oral (PO) using facility SOPs and sampling plasma at required time points. Species, formulation, route of administration and time points samples are listed below for each compound.
Compounds were extracted from plasma, injected on reverse phase HPLC, eluted with a gradient from 5% to 95% acetonitrile in water and quantified by mass spectrometry with internal standard. Data are expressed in ng compound per mL of plasma.

[1] = Rat (Sprague Dawley) po 10 mg/kg, Mean
[2] = Rat (Sprague Dawley) po 10 mg/kg, individual Rat 4-6, 10 mg/kg
[3] = Sprague Dawley rat, iv 3 mg/kg, Rat 1
[4] = Sprague Dawley rat, iv 3 mg/kg, Rat 2
[5] = Sprague Dawley rat, iv 3 mg/kg, Rat 3
[6] = Sprague Dawley rat, iv 3 mg/kg, mean of 3 rats
[7] = Sprague Dawley rat, plasma, 0 h
[8] = Sprague Dawley rat, plasma, 24 h

## O=C1CCC(N2C(=O)c3cccc(NCCOCCOCCNCc4ccc(-n5cc(NC(=O)c6coc(-c7ccnc(NCC8CC8)c7)n6)c(C(F)F)n5)cc4)c3C2=O)C(=O)N1 (stereo not drawn) [I-210, 2-[2-(Cyclopropylmethylamino)-4-pyridyl]-N-[3-(difluoromethyl)-1-[4-[[2-[2-[2-[[2-(2,6-dioxo-3-piperidyl)-1,3-dioxoisoindolin-4-yl]amino]ethoxy]ethoxy]ethylamino]methyl]phenyl]pyrazol-4-yl]oxazole-4-carboxamide]
Rat (Sprague Dawley) iv 3 mg/kg (IVB), brain homogenate 1:2 in PBS, 0.083 h, Group 1, Group 2, 3 mg/kg
  brain Detected Conc.: 11.8 ng/mL
Rat (Sprague Dawley) iv 3 mg/kg (IVB), brain homogenate 1:2 in PBS, 0.25 h, Group 1, Group 2, 3 mg/kg
  brain Detected Conc.: 12.9 ng/mL
Rat (Sprague Dawley) iv 3 mg/kg (IVB), brain homogenate 1:2 in PBS, 1 h, Group 1, Group 2, 3 mg/kg
  brain Detected Conc.: 17.5 ng/mL
Rat (Sprague Dawley) iv 3 mg/kg (IVB), brain homogenate 1:2 in PBS, 4 h, Group 1, Group 2, 3 mg/kg
  brain Detected Conc.: 12.4 ng/mL
Rat (Sprague Dawley) iv 3 mg/kg (IVB), brain, 0.083 h, Group 1, Group 2, detected value multiplied by 3, 3 mg/kg
  brain Actual Conc.: 35.4 ng/g
Rat (Sprague Dawley) iv 3 mg/kg (IVB), brain, 0.25 h, Group 1, Group 2, detected value multiplied by 3, 3 mg/kg
  brain Actual Conc.: 38.7 ng/g
Rat (Sprague Dawley) iv 3 mg/kg (IVB), brain, 1 h, Group 1, Group 2, detected value multiplied by 3, 3 mg/kg
  brain Actual Conc.: 52.5 ng/g
Rat (Sprague Dawley) iv 3 mg/kg (IVB), brain, 4 h, Group 1, Group 2, detected value multiplied by 3, 3 mg/kg
  brain Actual Conc.: 37.2 ng/g
[1]
  AUC_%Extrap_obs: 42.3%
  AUClast/D: 1.52 kg·ng·h/mL/mg
  F: 0.385%
[2]
  AUC_%Extrap_obs: 33.5% and 48.7% and 44.8%
  AUClast: 17.7 ng·h/mL and 21.1 ng·h/mL and 6.66 ng·h/mL
  Cmax: 3.50 ng/mL and 4.02 ng/mL and 1.20 ng/mL
  F: 0.450% and 0.536% and 0.169%
  MRTInf_obs: 10.2 h and 9.35 h
  T1/2: 5.65 h and 5.28 h
[3]
  AUC_%Extrap_obs Rat 1: 0.140%
  AUClast/D Rat 1: 414 kg·ng·h/mL/mg
  Cl_obs Rat 1: 40.2 mL/min/kg
  Vss_obs Rat 1: 7.85 L/kg
[4]
  AUC_%Extrap_obs Rat 2: 0.183%
  AUClast/D Rat 2: 403 kg·ng·h/mL/mg
  Cl_obs Rat 2: 41.2 mL/min/kg
  Vss_obs Rat 2: 7.79 L/kg
[5]
  AUC_%Extrap_obs Rat 3: 0.185%
  AUClast/D Rat 3: 364 kg·ng·h/mL/mg
  Cl_obs Rat 3: 45.7 mL/min/kg
  Vss_obs Rat 3: 8.00 L/kg
[6]
  AUC_%Extrap_obs Mean: 0.169%
  AUClast/D Mean: 394 kg·ng·h/mL/mg
  Cl obs Mean: 42 mL/min/kg
  Vss_obs Mean: 7.88 L/kg
Sprague Dawley rat, iv 3 mg/kg, plasma, 0 h, Rat 1
  Concentration Rat 1: BLOQ
Sprague Dawley rat, iv 3 mg/kg, plasma, 0 h, Rat 2
  Concentration Rat 2: BLOQ
Sprague Dawley rat, iv 3 mg/kg, plasma, 0 h, Rat 3
  Concentration Rat 3: BLOQ
[7]
  Concentration Rat 4: BLOQ
  Concentration Rat 5: BLOQ
  Concentration Rat 6: BLOQ
[8]
  Concentration Rat 4: BLOQ
  Concentration Rat 5: BLOQ
  Concentration Rat 6: BLOQ
Sprague Dawley, rat, brain homogenate, iv, 3 mg/kg, Rat (Sprague Dawley) iv 3 mg/kg (IVB), brain homogenate 1:2 in PBS, 0.083 h, Group 1, Group 2, read-out: brain Detected Conc.
  concentration at 0.083 h: 17.2 ng/mL
Sprague Dawley, rat, brain homogenate, iv, 3 mg/kg, Rat (Sprague Dawley) iv 3 mg/kg (IVB), brain homogenate 1:2 in PBS, 0.25 h, Group 1, Group 2, read-out: brain Detected Conc.
  concentration at 0.25 h: 13.2 ng/mL
Sprague Dawley, rat, brain homogenate, iv, 3 mg/kg, Rat (Sprague Dawley) iv 3 mg/kg (IVB), brain homogenate 1:2 in PBS, 1 h, Group 1, Group 2, read-out: brain Detected Conc.
  concentration at 1 h: 13.3 ng/mL
Sprague Dawley, rat, brain homogenate, iv, 3 mg/kg, Rat (Sprague Dawley) iv 3 mg/kg (IVB), brain homogenate 1:2 in PBS, 4 h, Group 1, Group 2, read-out: brain Detected Conc.
  concentration at 4 h: 14.2 ng/mL
Sprague Dawley, rat, brain, iv, 3 mg/kg, Rat (Sprague Dawley) iv 3 mg/kg (IVB), brain, 0.083 h, Group 1, Group 2, detected value multiplied by 3, read-out: brain Actual Conc.
  concentration at 0.083 h: 51.6 ng/g
Sprague Dawley, rat, brain, iv, 3 mg/kg, Rat (Sprague Dawley) iv 3 mg/kg (IVB), brain, 0.083 h, Mean, read-out: brain Actual Conc.
  concentration at 0.083 h: 43.5 ng/g
Sprague Dawley, rat, brain, iv, 3 mg/kg, Rat (Sprague Dawley) iv 3 mg/kg (IVB), brain, 0.25 h, Group 1, Group 2, detected value multiplied by 3, read-out: brain Actual Conc.
  concentration at 0.25 h: 39.6 ng/g
Sprague Dawley, rat, brain, iv, 3 mg/kg, Rat (Sprague Dawley) iv 3 mg/kg (IVB), brain, 0.25 h, Mean, read-out: brain Actual Conc.
  concentration at 0.25 h: 39.2 ng/g
Sprague Dawley, rat, brain, iv, 3 mg/kg, Rat (Sprague Dawley) iv 3 mg/kg (IVB), brain, 1 h, Group 1, Group 2, detected value multiplied by 3, read-out: brain Actual Conc.
  concentration at 1 h: 39.9 ng/g
Sprague Dawley, rat, brain, iv, 3 mg/kg, Rat (Sprague Dawley) iv 3 mg/kg (IVB), brain, 1 h, Mean, read-out: brain Actual Conc.
  concentration at 1 h: 46.2 ng/g
Sprague Dawley, rat, plasma, iv, 3 mg/kg, Sprague Dawley rat, iv 3 mg/kg, Rat 1, read-out: AUCInf Rat 1
  AUC(0-inf): 1240 ng·h/mL
Sprague Dawley, rat, plasma, iv, 3 mg/kg, Sprague Dawley rat, iv 3 mg/kg, Rat 1, read-out: AUClast Rat 1
  AUC(0-t): 1240 ng·h/mL
Sprague Dawley, rat, plasma, iv, 3 mg/kg, Sprague Dawley rat, iv 3 mg/kg, Rat 1, read-out: C0 Rat 1
  C0: 873 ng/mL
Sprague Dawley, rat, plasma, iv, 3 mg/kg, Sprague Dawley rat, iv 3 mg/kg, Rat 1, read-out: T1/2 Rat 1 (converted)
  half-life: 2.66 h
Sprague Dawley, rat, plasma, iv, 3 mg/kg, Sprague Dawley rat, iv 3 mg/kg, Rat 2, read-out: AUCInf Rat 2
  AUC(0-inf): 1210 ng·h/mL
Sprague Dawley, rat, plasma, iv, 3 mg/kg, Sprague Dawley rat, iv 3 mg/kg, Rat 2, read-out: AUClast Rat 2
  AUC(0-t): 1210 ng·h/mL
Sprague Dawley, rat, plasma, iv, 3 mg/kg, Sprague Dawley rat, iv 3 mg/kg, Rat 2, read-out: C0 Rat 2
  C0: 814 ng/mL
Sprague Dawley, rat, plasma, iv, 3 mg/kg, Sprague Dawley rat, iv 3 mg/kg, Rat 2, read-out: T1/2 Rat 2 (converted)
  half-life: 2.83 h
Sprague Dawley, rat, plasma, iv, 3 mg/kg, Sprague Dawley rat, iv 3 mg/kg, Rat 3, read-out: AUCInf Rat 3
  AUC(0-inf): 1090 ng·h/mL
Sprague Dawley, rat, plasma, iv, 3 mg/kg, Sprague Dawley rat, iv 3 mg/kg, Rat 3, read-out: AUClast Rat 3
  AUC(0-t): 1090 ng·h/mL
Sprague Dawley, rat, plasma, iv, 3 mg/kg, Sprague Dawley rat, iv 3 mg/kg, Rat 3, read-out: C0 Rat 3
  C0: 855 ng/mL
Sprague Dawley, rat, plasma, iv, 3 mg/kg, Sprague Dawley rat, iv 3 mg/kg, Rat 3, read-out: T1/2 Rat 3 (converted)
  half-life: 2.88 h
Sprague Dawley, rat, plasma, iv, 3 mg/kg, Sprague Dawley rat, iv 3 mg/kg, mean of 3 rats, read-out: AUCInf Mean
  AUC(0-inf): 1180 ng·h/mL
Sprague Dawley, rat, plasma, iv, 3 mg/kg, Sprague Dawley rat, iv 3 mg/kg, mean of 3 rats, read-out: AUClast Mean
  AUC(0-t): 1180 ng·h/mL
Sprague Dawley, rat, plasma, iv, 3 mg/kg, Sprague Dawley rat, iv 3 mg/kg, mean of 3 rats, read-out: C0 Mean
  C0: 848 ng/mL
Sprague Dawley, rat, plasma, iv, 3 mg/kg, Sprague Dawley rat, iv 3 mg/kg, mean of 3 rats, read-out: T1/2 Mean (converted)
  half-life: 2.79 h
Sprague Dawley, rat, plasma, po, 10 mg/kg, Rat (Sprague Dawley) po 10 mg/kg, Mean, read-out: AUCInf
  AUC(0-inf): 26.6 ng·h/mL

Source: patent US10874743B2, “IRAK degraders and uses thereof” (Kymera Therapeutics, Inc., priority 2017, dated 2020)
